In series [1] the test system is MDA-MB-231. Briefly: Cytotoxicity against human MDA-MB-231 cells at 50 uM by MTT assay. It is filed as functional.
Series [2] has as its system T47D. Briefly: Cytotoxicity against human T47D cells at 50 uM by MTT assay. It is filed as functional. For orientation: Tetrazolium dyes change colour on reduction, which living cells bring about.
The subject of a further series is MCF-10A. Kind of series: Cytotoxicity against human MCF10A cells at 50 uM by MTT assay. The format is cell-based.
The test system of series [3] is MDA-MB-231. Briefly: Cytotoxicity against human MDA-MB-231 cells by MTT assay. The format is functional, cell-based.
Series [4] deals with T47D. Briefly: Induction of autophagy in human T47D cells assessed as increase in Beclin-1 expression at 50 uM after 12 hrs by Western blot analysis. The format is functional, cell-based. In general terms: Immunoblotting shows a protein as a band on a membrane.
Series [5] concerns MDA-MB-231. Kind of series: Induction of autophagy in human MDA-MB-231 cells assessed as increase in Beclin-1 expression at 50 uM after 12 hrs by Western blot analysis. It is filed as functional, cell-based.
Series [6] deals with T47D. Kind of series: Cytotoxicity against human T47D cells by MTT assay. The format is functional, cell-based.

Active and inactive are the calls of the source. The rule behind the calls is not given here.

As a reminder, the IC50 is the concentration needed to halve the response being measured. Low readings indicate inhibition by little substance, high ones a need for much substance.

Regarding `Oc1ccc(/C=N/c2ccc(Cl)cc2)cc1O`, the outcome in the series on MDA-MB-231 [1] and in the series on T47D [2] was Active. For the same molecule, the Activity entry in the series on MCF-10A is recorded as “Non-toxic”.

On to `Oc1ccc(/N=C/c2ccc(O)c(O)c2)cc1`, for which the results for the IC50 in the series with MDA-MB-231 [3] and in the series with T47D [6] were 29 µM and 44 µM, respectively. The result in the series on T47D [4] and in the series with MDA-MB-231 [5] was Active. Besides, the Activity is 65% in the series with MDA-MB-231 [1], 40% with T47D [2] and “Non-toxic” in the series with MCF-10A.

Consider `Cc1ccc(/N=C/c2ccc(O)c(O)c2)cc1`, for which the IC50 in the series on MDA-MB-231 [3] turned out to be 21 µM; in the series with T47D [6] it was 32 µM. For the same molecule, the result in the series with T47D [4] and in the series with MDA-MB-231 [5] was Active. Moreover, the Activity is given as 65% in the series with MDA-MB-231 [1], 40% in the series on T47D [2] and “Non-toxic” with MCF-10A.

`Oc1ccc(/C=N/c2ccc(F)cc2)cc1O`: the outcome with MDA-MB-231 [1] and in the series on T47D [2] was Active. For the same molecule, in the series on MCF-10A, the Activity result was “Non-toxic”.

For the molecule `Oc1ccc(/C=C/c2cc(O)cc(O)c2)cc1` [RESVERATROL], the half-maximal inhibitory concentration (IC50) turned out to be 66 µM with MDA-MB-231 [3] and 76 µM with T47D [6]. Besides, the Activity with MDA-MB-231 [1] and in the series with T47D [2] was 40% throughout.

With `COc1ccc(/N=C/c2ccc(O)c(O)c2)cc1`, the result in the series with MDA-MB-231 [1] and with T47D [2] was Active. The Activity result in the series on MCF-10A was “Non-toxic”.

In the case of `Oc1ccc(/C=N/c2ccc3[nH]ccc3c2)cc1O`, the result in the series with MDA-MB-231 [1] was inactive. Besides, the Activity is listed as 40% with T47D [2] and “Non-toxic” in the series on MCF-10A.

The values above are taken from ChEMBL document CHEMBL2321714, “Novel Aza-resveratrol analogs: synthesis, characterization and anticancer activity against breast cancer cell lines” (Bioorg Med Chem Lett, 2013).
